Results reported in patent US12497386B2, “Estrogen receptor-modulating compounds” (RADIUS PHARMACEUTICALS, INC., priority 2018, dated 2025).

Tested on: MCF-7 cells
Assay: MCF-7 Proliferation Inhibition Assay
Type: cell-based, human
Details: 10 pM dose of E2, 7 days incubation, CellTiterGlo viability
Procedure: Proliferation Assay in MCF-7 and T47D Cells
MCF-7 and T47D cells were stripped for 3 days in phenol red-free RPMI1640 media containing 10% charcoal-stripped fetal bovine serum (CS-FBS) and 1% Penicillin/streptomycin (P/S). Cells (volume of 90 μl/well) were seeded in 96 well plates at a density of 2500 cells/well for MCF-7 cells and 1500 cells/well for T47D cells. On the following day, plates were treated with the test compounds (10× concentration in media, volume of 10 μl/well added) both in the absence and in the presence of two doses of E2 (10 pM and 1 nM). The cells were incubated with test compounds for 7 days. The viability of the cells was assessed using CellTiterGlo (Promega, Cat #G7573) according to the manufacturer's instructions. Growth inhibition curves and IC50 values were calculated using the GraphPadPrism 6.0 software. Data values shown in Table 1 were obtained using the 10 pM dose of E2.

| IC50 (Homo sapiens, MCF7, 168 h) | IC50 | Compound |
| --- | --- | --- |
| < 1 nM |  | Cc1ccccc1-c1sc2cc(O)ccc2c1Oc1ccc(CCNC2CC2)cc1 [BT-05, 3-(4-(2-(Cyclopropylamino)ethyl)phenoxy)-2-(o-tolyl)benzo[b]thiophen-6-ol] |
| < 1 nM |  | Cc1ccccc1-c1sc2cc(O)ccc2c1Oc1ccc(CCNCC2CC2)cc1 [BT-12, 3-(4-(2-((Cyclopropylmethyl)amino)ethyl)phenoxy)-2-(o-tolyl)benzo[b]thiophen-6-ol] |
| < 1 nM |  | CCCN1CC(=Cc2ccc(Oc3c(-c4ccccc4C)sc4cc(O)ccc34)cc2)C1 [BT-17, 3-(4-((1-Propylazetidin-3-ylidene)methyl)phenoxy)-2-(o-tolyl)benzo[b]thiophen-6-ol] |
| < 1 nM |  | Cc1ccccc1C1=C(Cc2ccc(CCNC3CC3)cc2)c2ccc(O)cc2OCC1 [Bx-06, 5-(4-(2-(Cyclopropylamino)ethyl)benzyl)-4-(o-tolyl)-2,3-dihydrobenzo[b]oxepin-8-ol] |
| < 1 nM |  | CCNCCc1ccc(CC2=C(c3ccccc3C)CCOc3cc(O)ccc32)cc1 [Bx-07, 5-(4-(2-(Ethylamino)ethyl)benzyl)-4-(o-tolyl)-2,3-dihydrobenzo[b]oxepin-8-ol] |
| 1 to 10 nM |  | CCNCCc1ccc(Cn2c(-c3ccc(OC)cc3)c(C)c3cc(O)ccc32)cc1 [Compound D-01, 1-(4-(2-(Ethylamino)ethyl)benzyl)-2-(4-methoxyphenyl)-3-methyl-1H-indol-5-ol] |
| 1 to 10 nM |  | COc1ccc(-c2c(C)c3cc(O)ccc3n2Cc2ccc(CCNC3CC3)cc2)cc1 [Compound D-02, 1-(4-(2-(Cyclopropylamino)ethyl)benzyl)-2-(4-methoxyphenyl)-3-methyl-1H-indol-5-ol] |
| 1 to 10 nM |  | COc1ccc(-c2c(C)c3cc(O)ccc3n2Cc2ccc(CCNCC3CC3)cc2)cc1 [Compound D-03, 1-(4-(2-((Cyclopropylmethyl)amino)ethyl)benzyl)-2-(4-methoxyphenyl)-3-methyl-1H-indol-5-ol] |
| 1 to 10 nM |  | COc1ccc(-c2c(C)c3cc(O)ccc3n2Cc2ccc(CCNC(C)C)cc2)cc1 [Compound D-08, 1-(4-(2-(Isopropylamino)ethyl)benzyl)-2-(4-methoxyphenyl)-3-methyl-1H-indol-5-ol] |
| > 10 nM |  | COc1ccc(-c2c(C)c3cc(O)ccc3n2Cc2ccc(CCNCC(F)(F)F)cc2)cc1 [Compound D-12, 2-(4-Methoxyphenyl)-3-methyl-1-(4-(2-((2,2,2-trifluoroethyl)amino)ethyl)benzyl)-1H-indol-5-ol] |
| 1 to 10 nM |  | CCNCCc1ccc(Cn2c(-c3ccc(OC)cc3)c(Cl)c3cc(O)ccc32)cc1 [Compound D-13, 3-Chloro-1-(4-(2-(ethylamino)ethyl)benzyl)-2-(4-methoxyphenyl)-1H-indol-5-ol] |
| < 1 nM |  | COc1ccc(-c2c(F)c3cc(O)ccc3n2Cc2ccc(CCNC3CC3)cc2)cc1 [Compound D-15, 1-(4-(2-(Cyclopropylamino)ethyl)benzyl)-3-fluoro-2-(4-methoxyphenyl)-1H-indol-5-ol] |
| < 1 nM |  | CCNCCc1ccc(Cn2c(-c3ccc(OC)cc3)c(F)c3cc(O)ccc32)cc1 [Compound D-16, 1-(4-(2-(Ethylamino)ethyl)benzyl)-3-fluoro-2-(4-methoxyphenyl)-1H-indol-5-ol] |
| < 1 nM |  | Cc1ccccc1-c1c(F)c2cc(O)ccc2n1Cc1ccc(CCNC2CC2)cc1 [Compound D-28, 1-(4-(2-(Cyclopropylamino)ethyl)benzyl)-3-fluoro-2-(o-tolyl)-1H-indol-5-ol] |
| < 1 nM |  | CCNCCc1ccc(Cn2c(-c3ccccc3C)c(F)c3cc(O)ccc32)cc1 [Compound D-29, 1-(4-(2-(Ethylamino)ethyl)benzyl)-3-fluoro-2-(o-tolyl)-1H-indol-5-ol] |
| < 1 nM |  | Oc1ccc2c(c1)c(F)c(-c1ccccc1C(F)(F)F)n2Cc1ccc(CCNC2CC2)cc1 [Compound D-33, 1-(4-(2-(Cyclopropylamino)ethyl)benzyl)-3-fluoro-2-(2-(trifluoromethyl)phenyl)-1H-indol-5-ol] |
| < 1 nM |  | CCNCCc1ccc(Cn2c(-c3ccccc3C(F)(F)F)c(F)c3cc(O)ccc32)cc1 [Compound D-34, 1-(4-(2-(Ethylamino)ethyl)benzyl)-3-fluoro-2-(2-(trifluoromethyl)phenyl)-1H-indol-5-ol] |
| < 1 nM |  | Cc1cc(F)ccc1-c1c(F)c2cc(O)ccc2n1Cc1ccc(CCNC2CC2)cc1 [Compound D-36, 1-(4-(2-(Cyclopropylamino)ethyl)benzyl)-3-fluoro-2-(4-fluoro-2-methylphenyl)-1H-indol-5-ol] |
| < 1 nM |  | Oc1ccc2c(c1)c(F)c(-c1ccccc1Cl)n2Cc1ccc(CCNC2CC2)cc1 [Compound D-37, 2-(2-Chlorophenyl)-1-(4-(2-(cyclopropylamino)ethyl)benzyl)-3-fluoro-1H-indol-5-ol] |

| IC50 (Homo sapiens, MCF7, 168 h) | IC50 | Compound |
| --- | --- | --- |
| < 1 nM |  | Cc1ccccc1-c1c(F)c2cc(O)ccc2n1Cc1ccc(CCNCC2CC2)cc1 [Compound D-39, 1-(4-(2-((Cyclopropylmethyl)amino)ethyl)benzyl)-3-fluoro-2-(o-tolyl)-1H-indol-5-ol] |
| < 1 nM |  | Oc1ccc2c(c1)c(F)c(-c1ccccc1C(F)(F)F)n2Cc1ccc(CCNCC2CC2)cc1 [Compound D-40, 1-(4-(2-((Cyclopropylmethyl)amino)ethyl)benzyl)-3-fluoro-2-(2-(trifluoromethyl)phenyl)-1H-indol-5-ol] |
| < 1 nM |  | Cc1ccccc1-c1c(F)c2cc(O)ccc2n1Cc1ccc(CCNC2CCC2)cc1 [Compound D-46, 1-(4-(2-(Cyclobutylamino)ethyl)benzyl)-3-fluoro-2-(o-tolyl)-1H-indol-5-ol] |
| < 1 nM |  | Cc1cccc(C)c1-c1c(F)c2cc(O)ccc2n1Cc1ccc(CCNC2CCC2)cc1 [Compound D-50, 1-(4-(2-(Cyclobutylamino)ethyl)benzyl)-2-(2,6-dimethylphenyl)-3-fluoro-1H-indol-5-ol] |
| < 1 nM |  | Cc1cc(O)ccc1-c1c(F)c2cc(O)ccc2n1Cc1ccc(CCNC2CC2)cc1 [Compound D-52, 1-(4-(2-(Cyclopropylamino)ethyl)benzyl)-3-fluoro-2-(4-hydroxy-2-methylphenyl)-1H-indol-5-ol] |
| < 1 nM |  | CCCNCCc1ccc(Cn2c(-c3ccccc3-c3ccccc3)c(F)c3cc(O)ccc32)cc1 [Compound D-66, 2-([1,1′-Biphenyl]-2-yl)-3-fluoro-1-(4-(2-(propylamino)ethyl)benzyl)-1H-indol-5-ol] |
|  | < 1 nM | CCCNCCc1ccc(Cn2c(-c3ccccc3C)c(F)c3cc(O)ccc32)cc1 [Compound D-67, 3-Fluoro-1-(4-(2-(propylamino)ethyl)benzyl)-2-(o-tolyl)-1H-indol-5-01] |
|  | < 1 nM | CCCCNCCc1ccc(Cn2c(-c3ccccc3C)c(F)c3cc(O)ccc32)cc1 [Compound D-68, 1-(4-(2-(Butylamino)ethyl)benzyl)-3-fluoro-2-(o-tolyl)-1H-indol-5-01] |
| < 1 nM |  | Cc1ccccc1-c1c(F)c2cc(O)ccc2n1Cc1ccc(CCNCCCF)cc1 [Compound D-69, 3-Fluoro-1-(4-(2-((3-fluoropropyl)amino)ethyl)benzyl)-2-(o-tolyl)-1H-indol-5-ol] |
| < 1 nM |  | Cc1ccccc1-c1c(F)c2cc(O)ccc2n1Cc1ccc(CCNCCF)cc1 [Compound D-70, 3-Fluoro-1-(4-(2-((2-fluoroethyl)amino)ethyl)benzyl)-2-(o-tolyl)-1H-indol-5-ol] |
| < 1 nM |  | CCNCCc1ccc(Cn2c(-c3c(C)cccc3C)c(F)c3cc(O)ccc32)cc1 [Compound D-78, 2-(2,6-Dimethylphenyl)-1-(4-(2-(ethylamino)ethyl)benzyl)-3-fluoro-1H-indol-5-ol] |
| < 1 nM |  | CCNCCc1ccc(Cn2c(-c3ccccc3C)c(F)c3c4cn[nH]c4ccc32)cc1 [Compound D-85, N-Ethyl-2-(4-((8-fluoro-7-(o-tolyl)pyrrolo[3,2-e]indazol-6(3H)-yl)methyl)phenyl)ethan-1-amine] |
| < 1 nM |  | CCCNCCc1ccc(Cn2c(-c3ccccc3OC)c(F)c3cc(O)ccc32)cc1 [Compound D-87, 3-Fluoro-2-(2-methoxyphenyl)-1-(4-(2-(propylamino)ethyl)benzyl)-1H-indol-5-ol] |
| < 1 nM |  | Cc1ccccc1-c1c(F)c2c3cn[nH]c3ccc2n1Cc1ccc(CCNCC2CC2)cc1 [Compound D-88, N-(Cyclopropylmethyl)-2-(4-((8-fluoro-7-(o-tolyl)pyrrolo[3,2-e]indazol-6(3H)-yl)methyl)phenyl)ethan-1-amine] |
| < 1 nM |  | Cc1ccccc1-c1c(F)c2c3cn[nH]c3ccc2n1Cc1ccc(CCNC2CCC2)cc1 [Compound D-89, N-(4-((8-Fluoro-7-(o-tolyl)pyrrolo[3,2-e]indazol-6(3H)-yl)methyl)phenethyl)cyclobutanamine] |
| < 1 nM |  | Cc1ccccc1-c1c(F)c2c3cn[nH]c3ccc2n1Cc1ccc(CCNC2CC2)cc1 [Compound D-90, N-(4-((8-Fluoro-7-(o-tolyl)pyrrolo[3,2-e]indazol-6(3H)-yl)methyl)phenethyl)cyclopropanamine] |
| < 1 nM |  | CCCNCCc1ccc(Cn2c(-c3ccccc3C)c(F)c3c4cn[nH]c4ccc32)cc1 [Compound D-91, N-(4-((8-fluoro-7-(o-tolyl)pyrrolo[3,2-e]indazol-6(3H)-yl)methyl)phenethyl)propan-1-amine] |
| < 1 nM |  | CCCNCCc1ccc(Cn2c(-c3ccc(OC)cc3C)c(F)c3cc(O)ccc32)cc1 [Compound D-96, 3-Fluoro-2-(4-methoxy-2-methylphenyl)-1-(4-(2-(propylamino)ethyl)benzyl)-1H-indol-5-ol] |

| Compound | IC50 (Homo sapiens, MCF7, 168 h) | IC50 |
| --- | --- | --- |
| Cc1ccccc1-c1c(F)c2cc(O)ccc2n1Cc1ccc(CC(C)NC2CC2)cc1 [Compound D-32, 1-(4-(2-(Cyclopropylamino)propyl)benzyl)-3-fluoro-2-(o-tolyl)-1H-indol-5-ol] | < 1 nM |  |
